Experimental data: ChEMBL document CHEMBL1133811, “Small molecule/nucleic acid affinity chromatography: application for the identification of telomerase inhibitors which target its key RNA/DNA heteroduplex” (Bioorg Med Chem Lett, 2001)
Numbered stars: 1 amine (or outer) side, 2 acyl side, 3 side chain; on linkers, the order of the positions; unused ones are H or OH. Bridge positions count the residues as written; N and C are the ends. Square brackets hold non-standard residues; d marks the D form. Peptide text beside a SMILES is read from it. I, II: the chains in the order shown. Actinocin(9to1) = Cc1c2oc3c(C)ccc(C(=O)[*:1])c3nc-2c(C(=O)[*:2])c(N)c1=O; NMeV = CN[C@H](C(=O)O)C(C)C; Sar = CNCC(=O)O

Legend:
[1] = biological target: T1, Telomerase reverse transcriptase (Homo sapiens, UniProt O14746); experiment: Inhibitory activity against telomerase (Compound released from DNA/DNA heteroduplex derivatized resin [sequence (TTAGGG)3)
T1 sequence (O14746 whole entry): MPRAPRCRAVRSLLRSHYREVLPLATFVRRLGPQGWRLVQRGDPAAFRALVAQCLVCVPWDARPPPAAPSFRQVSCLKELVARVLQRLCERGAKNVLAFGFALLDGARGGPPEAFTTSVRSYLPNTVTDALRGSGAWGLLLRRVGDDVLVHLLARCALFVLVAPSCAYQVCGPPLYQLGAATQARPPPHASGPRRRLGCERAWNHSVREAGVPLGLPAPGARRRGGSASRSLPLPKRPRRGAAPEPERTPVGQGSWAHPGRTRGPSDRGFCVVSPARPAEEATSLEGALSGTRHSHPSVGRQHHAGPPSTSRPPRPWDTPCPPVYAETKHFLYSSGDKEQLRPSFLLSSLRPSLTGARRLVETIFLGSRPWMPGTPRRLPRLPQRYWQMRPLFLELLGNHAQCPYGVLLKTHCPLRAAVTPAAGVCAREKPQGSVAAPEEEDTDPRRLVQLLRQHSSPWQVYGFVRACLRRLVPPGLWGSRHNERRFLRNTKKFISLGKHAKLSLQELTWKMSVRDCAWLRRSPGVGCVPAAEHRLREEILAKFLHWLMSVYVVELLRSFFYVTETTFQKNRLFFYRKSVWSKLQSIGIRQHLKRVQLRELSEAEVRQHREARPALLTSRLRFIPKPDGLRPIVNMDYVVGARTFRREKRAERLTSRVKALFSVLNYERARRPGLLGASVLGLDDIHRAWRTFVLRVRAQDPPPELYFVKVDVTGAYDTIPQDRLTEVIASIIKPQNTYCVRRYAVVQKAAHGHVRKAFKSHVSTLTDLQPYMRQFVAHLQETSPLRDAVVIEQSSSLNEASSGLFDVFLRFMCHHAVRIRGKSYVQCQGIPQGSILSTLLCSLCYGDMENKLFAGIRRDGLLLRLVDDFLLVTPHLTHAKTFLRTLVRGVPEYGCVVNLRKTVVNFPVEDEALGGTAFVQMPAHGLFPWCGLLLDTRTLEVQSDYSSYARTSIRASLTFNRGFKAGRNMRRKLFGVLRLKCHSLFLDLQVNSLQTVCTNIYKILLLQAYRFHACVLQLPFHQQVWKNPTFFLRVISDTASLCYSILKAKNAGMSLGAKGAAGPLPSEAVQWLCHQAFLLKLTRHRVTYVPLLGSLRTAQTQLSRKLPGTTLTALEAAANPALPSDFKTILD

[2] = biological target: T1, Telomerase reverse transcriptase; experiment: Inhibitory activity against telomerase (Compound released from RNA/DNA heteroduplex derivatized resin [sequence (TTAGGG)3)
[3] = biological target: T1, Telomerase reverse transcriptase; experiment: Inhibitory activity against telomerase (Compound released from underivatized resin
[4] = biological target: T1, Telomerase reverse transcriptase; experiment: Inhibitory activity against telomerase at 50 uM concentration (Compound released from DNA/DNA heteroduplex derivatized resin [sequence (TTAGGG)3)
[5] = biological target: T1, Telomerase reverse transcriptase; experiment: Inhibitory activity against telomerase at 50 uM concentration (Compound released from underivatized resin
[6] = biological target: T1, Telomerase reverse transcriptase; experiment: Inhibitory activity against telomerase at 50 uM concentration (Compound released from RNA/DNA heteroduplex derivatized resin [sequence (TTAGGG)3)

Cc1cc2cc3cc(C)c(N)cc3nc2cc1N
IC50 [1]: 21.7 µM
IC50 [2]: 21.7 µM
IC50 [3]: 21.7 µM

COc1cccc2c1C(=O)c1c(O)c3c(c(O)c1C2=O)C[C@@](O)(C(=O)CO)C[C@@H]3O[C@H]1C[C@H](N)[C@H](O)[C@H](C)O1
inhibition [4]: < 50%
inhibition [5]: < 50%
inhibition [6]: < 50%

COc1cccc2c1C(=O)c1c(O)c3c(c(O)c1C2=O)C[C@@](O)(C(C)=O)C[C@@H]3O[C@H]1C[C@H](N)[C@H](O)[C@H](C)O1
inhibition [4]: < 50%
inhibition [5]: < 50%
inhibition [6]: < 50%

Cc1c2oc3c(C)c(N)cc(C(=O)N[C@@H]4C(=O)N[C@H](C(C)C)C(=O)N5CCC[C@H]5C(=O)N(C)CC(=O)N(C)[C@@H](C(C)C)C(=O)O[C@@H]4C)c3nc-2c(C(=O)N[C@@H]2C(=O)N[C@H](C(C)C)C(=O)N3CCC[C@H]3C(=O)N(C)CC(=O)N(C)[C@@H](C(C)C)C(=O)O[C@@H]2C)c(N)c1=O
inhibition [4]: < 50%
inhibition [5]: < 50%
inhibition [6]: < 50%

Cc1c2oc3c(C)ccc(C(=O)N[C@@H]4C(=O)N[C@H](C(C)C)C(=O)N5CCC[C@H]5C(=O)N(C)CC(=O)N(C)[C@@H](C(C)C)C(=O)O[C@@H]4C)c3nc-2c(C(=O)N[C@@H]2C(=O)N[C@H](C(C)C)C(=O)N3CCC[C@H]3C(=O)N(C)CC(=O)N(C)[C@@H](C(C)C)C(=O)O[C@@H]2C)c(N)c1=O (I: T[dV]P[Sar][NMeV] / II: T[dV]P[Sar][NMeV]; ester I:1-I:C, II:1-II:C; linker I:N-II:N via Actinocin(9to1))
inhibition [4]: < 50%
inhibition [5]: < 50%
inhibition [6]: < 50%

CN(C)c1ccc2cc3ccc(N(C)C)cc3nc2c1 [ACRIDINE ORANGE]
IC50 [1]: 12.2 µM
IC50 [2]: 12.2 µM
IC50 [3]: 12.2 µM

CCOc1ccc2nc3cc(N)ccc3c(N)c2c1 [ETHACRIDINE]
IC50 [1]: 8.2 µM
IC50 [2]: 8.2 µM
IC50 [3]: 8.2 µM

CC[n+]1c(-c2ccccc2)c2cc(N)ccc2c2ccc(N)cc21 [HOMIDIUM BROMIDE]
IC50 [1]: 3.3 µM
IC50 [2]: 3.3 µM
IC50 [3]: 3.3 µM
